From ChEMBL document CHEMBL4402526, “Design and Synthesis of Fungal-Selective Resorcylate Aminopyrazole Hsp90 Inhibitors” (J Med Chem, 2020)
Active and inactive are the calls of the source.

How the values were obtained:
[1] = Half life in CD-1 mouse liver microsomes at 1 uM measured up to 120 mins by LC-MS/MS analysis
[2] = Microsomal stability in CD-1 mouse liver microsomes assessed as parent compound remaining at 1 uM measured at 60 mins by LC-MS/MS analysis; assay type: ADME, Microsome; details: read-out: Stability
Cryptococcus neoformans [3] = experiment: Antifungal activity against Cryptococcus neoformans H99 assessed as fungal growth inhibition at <= […] uM measured after 48 hrs by resazurin assay; assay type: functional, organism-based
Candida albicans [4] = experiment: Antifungal activity against Candida albicans clinical isolate 2 assessed as fungal growth inhibition at <= […] uM measured after 48 hrs by resazurin assay; assay type: functional, organism-based
[5] = Displacement of Cy3-labeled geldanamycin from HSP90 in Candida albicans clinical isolate 2 cell lysate measured after […] by fluorescence polarization assay; assay type: subcellular
Candida albicans [6] = experiment: Antifungal activity against Candida albicans clinical isolate 2 assessed as fungal growth inhibition measured after 48 hrs in presence of fluconazole by resazurin assay; assay type: functional; details: clinical isolate 2, 48 h
Candida albicans [7] = experiment: Fungicidal activity against Candida albicans clinical isolate 2 incubated for 48 hrs in presence of fluconazole followed by replating on YDP agar plate and measured after 24 hrs; assay type: functional, organism-based
Cryptococcus neoformans [8] = experiment: Antifungal activity against Cryptococcus neoformans H99 assessed as fungal growth inhibition at < […] uM measured after 48 hrs by resazurin assay; assay type: functional, organism-based
[9] = Selectivity index, ratio of kd for binding affinity to recombinant human Hsp90 NBD expressed in Escherichia coli Rosetta2 to Kd for binding affinity to recombinant Candida albicans clinical isolate 2 HSP90 NBD (E7 to K218 residues) expressed in Escherichia coli Rosetta2

Row | Compound | half-life at 2 h, 1 µM [1] [min] | remaining at 1 h, 1 µM [2] [%] | Activity (Cryptococcus neoformans [3]) | Activity (Candida albicans [4]) | EC50 [5] [µM] | MIC (Candida albicans [6]) [µM] | Activity (Candida albicans [7]) | Activity (Cryptococcus neoformans [8]) | Selectivity Index [9]
1 | Cc1cccc(-c2cc(Nc3cc(O)cc(O)c3C(=O)N3Cc4cn[nH]c4C3)n(C)n2)c1 | 9.38 | 1.8 | Active | Active |  |  |  |  | 
2 | COc1ccc(Cn2nc(C)cc2Nc2cc(O)cc(O)c2C(=O)N(C)CC2CC2)cc1 |  |  | Active | Active | > 9 |  |  |  | 
3 | CC(C)c1ccc(Cn2nccc2Nc2cc(O)cc(O)c2C(=O)N2Cc3ccccc3C2)cc1 | 3.1 | 1.8 | Active | Active |  |  |  |  | 
4 | COc1cccc(-c2cc(Nc3cc(O)cc(O)c3C(=O)N3Cc4cccnc4C3)n(C)n2)c1 | 3.44 | 0 | Active | Active |  |  |  |  | 
5 | Cn1nc(C2CCCCC2)cc1Nc1cc(O)cc(O)c1C(=O)N1Cc2cn[nH]c2C1 | 2.74 | 0.06 | Active | Active |  |  |  |  | 
6 | Cn1nc(-c2ccc(OC(F)(F)F)cc2)cc1Nc1cc(O)cc(O)c1C(=O)N1Cc2ccccc2C1 |  |  | Active | Active |  | 12.5 |  |  | 
7 | COc1cccc(-c2cc(Nc3cc(O)cc(O)c3C(=O)N3Cc4ccccc4C3)n(C)n2)c1 | 3.15 | 0 | Active | Active |  |  |  |  | 
8 | COc1ccc(Cn2nc(C)cc2Nc2cc(O)cc(O)c2C(=O)N(C)Cc2ccccc2)cc1 |  |  | Active | Active | > 6 |  |  |  | 
9 | COc1ccc(Cn2ncc(C)c2Nc2cc(O)cc(O)c2C(=O)N2Cc3ccccc3C2)cc1 |  |  | Active | Active |  |  | Active |  | 
10 | Cn1nc(-c2ccc(OC(F)(F)F)cc2)cc1Nc1cc(O)cc(O)c1C(=O)N1Cc2cn[nH]c2C1 |  | 20.6 | Active | Active |  |  |  |  | 
11 | CCN(CC)C(=O)c1c(O)cc(O)cc1Nc1cc(-c2ccccc2)nn1Cc1ccc(OC)cc1 |  |  | Active | Active | > 10 |  |  |  | 
12 | Cc1ccccc1-c1cc(Nc2cc(O)cc(O)c2C(=O)N2Cc3ccccc3C2)n(C)n1 |  |  | Active | Active |  |  |  | Active | 
13 | COc1ccc(CO\N=C2/C=C/C=C\[C@H]3O[C@@H]3C[C@@H](C)OC(=O)c3c(O)cc(O)cc3C2)cc1 |  |  |  |  |  |  |  |  | > 25
14 | Cn1nc(-c2ccc(C(C)(C)C)cc2)cc1Nc1cc(O)cc(O)c1C(=O)N1Cc2cn[nH]c2C1 | 6.44 | 0.5 | Active | Active |  |  |  |  | 
15 | COc1ccc(Cn2nc(-c3ccccc3)cc2Nc2cc(O)cc(O)c2C(=O)N2Cc3ccccc3C2)cc1 |  |  | Active | Active |  |  | Active |  | 
16 | COc1cccc(-c2cc(Nc3cc(O)cc(O)c3C(=O)N3Cc4cn[nH]c4C3)n(C)n2)c1 |  | 7 | Active | Active |  |  |  |  | 
17 | COc1ccc(Cn2nc(-c3ccccc3)cc2Nc2cc(O)cc(O)c2C(=O)N(C)CC2CC2)cc1 |  |  | Active | Active | > 9 |  |  |  | 
18 | Cc1cc(Nc2cc(O)cc(O)c2C(=O)N2Cc3ccccc3C2)n(Cc2ccccc2Cl)n1 |  |  | Active | Active |  |  | Active |  | 
